Measured values reported in patent publication EP0219491B1, “OXINDOLE ALKALOIDS WITH PROPERTIES STIMULATING THE IMMUNITY SYSTEM AND PREPARATIONS CONTAINING THEM” (KEPLINGER, Klaus, priority 1984, dated 1986).

Assays:
[1] = system: Granulozytenfraktion (PMNL-Fraktion); test: Granulocyte test modified after BRANDT (phagocytosis of yeast cells by PMNL); format: cell-based, menschlichen Blut; details: for Wirksamkeit im Granulozytentest: summary in words
From the text: Neutrophile Granulozyten sind zusammen mit Makrophagen die wichtigsten Effektorzellen der Phagozytose und nehmen damit eine wichtige Stellung in der Infektabwehr ein. Sie stellen etwa 60-70% aller weissen Blutkörperchen im menschlichen Blut dar. Der Phagozytoseleistung dieser Granulozyten lässt sich in vitro nach einer von BRANDT (Scand. J. Haematol. Suppl 2, 1967) entwickelten und vonTYMPNER (Münchn. Med. WSchr. 8, 251, 1978) modifizierten Methodik messen.
Dabei wird aus dem Blut gesunder Probanden eine Granulozytenfraktion (PMNL-Fraktion) gewonnen.
Diese PMNL-Fraktion besteht hauptsächlich aus neutrophilen Granulozyten neben wenig eosinophilen und basophilen Granulozyten sowie Lymphozyten, Monozyten und Thrombozyten. Nach Zusatz einer definierten Menge von Hefezellen (Saccharomyces cerevisiae) und der zu testenden Substanz wird zunächst 10 min bei 37° C inkubiert, die Aufschwemmung auf einem Objektträger ausgestrichen und weitere 35 min bei Raumtemperatur inkubiert. Anschliessend werden die Ausstriche angefärbt und mikroskopisch ausgewertet. Pro Objektträger werden 100 PMNL-Zellen ausgewählt und bestimmt, wieviele Hefepartikel von den einzelnen Zellen phagozytiert wurden. Der Phagozytoseindex (PJ) gibt die durchschnittliche Anzahl von phagozytierten Hefepartikeln pro Granulocyt an. Die Steigerung (S) der Phagozytoseaktivität im Blindwert wurde berechnet nach: [formula]

[2] = system: Granulozyten; test: Chemiluminescence test (CL), respiratory burst of phagocytes activated with opsonised Zymosan; format: cell-based
From the text: Obwohl der Granulozytentest nach BRANDT eine zuverlässige Methode zur Ermittlung phagozytosesteigernder Eigenschaften von Substanzen und Extrakten darstellt, ist er sehr zeit- und personalaufwendig. Eine Alternative bietet die neue Methode der Chemilumineszenzmessung phagozytierender Zellen.
Seitdem ALLEN et al. (Biochem. Biophys. Res. Commun, 47,129,1972) als erste die Lichtemission von neutrophilen Granulozyten während der Phagozytose von Latexpartikeln und verschiedener Bakterien entdeckten und NELSON et al. (Infect. Immun 14,129,1976) und WEIDEMANN et al. (FEBS Letters 89,136,1978) CL-Erscheinungen an phagozytierenden Blutmakrophagen (Monozyten) nachweisen konnten, wird diese Reaktion auch in der experimentellen und klinischen Immunologie angewendet. Der genaue Mechanismus der dabei ablaufenden Reaktion konnte allerdings bis heute noch nicht vollständig aufgeklärt werden. Zusammenfassend lässt sich die bei aktivierten Phagozyten auftretende CL folgendermassen darstellen: der Kontakt dieser Zellen mit Bakterien, Viren oder anderem körperfremden Material, z.B. auch chemische Substanzen, führt zunächst zu einer gesteigerten Sauerstoffaufnahme. Anschliessend werden in der Zelle aus dem molekularen Sauerstoff Superoxid-Anion-Radikale O2^- gebildet, die sich dann entweder spontan oder enzymatisch katalysiert in andere aktivierte Sauerstoffmoleküle, wie Wasserstoffperoxid (H202), Singulett-Sauerstoff (^1O2), Hydroxylradikale (OH) und Hypochlorit-Anionen (OCI-) umwandeln. Dieser Vorgang wird «respiratory burst» genannt.
Durch die Freisetzung der aktivierten Sauerstoffmoleküle in die unmittelbare Umgebung der phagozytierenden Zelle, wie auch in die phagozytische Vakuole selbst und durch die Aktivierung lysosomaler Enzyme können eingedrungene Mikroorganismen oder Tumorzellen geschädigt oder getötet werden. Auch andere Moleküle sind daran beteiligt, so z.B. sogenannte kationische Proteine .und Laktoferrin. Die Zellwände der Mikroorganismen werden durch Oxidation oder Reduktion angegriffen und teilweise zerstört. Als Nebeneffekt tritt dabei CL auf, da das Zellwandmaterial als chemilumineszierendes Substrat für die aktivierten Sauerstoffmoleküle dient.
Die geringe Lichtausbeute solcher CL-Reaktionen phagozytierender Zellen wird im in-vitro-Experiment durch den Zusatz von Substanzen erhöht, die durch aktivierten Sauerstoff oxidiert werden und dabei Licht bestimmter Wellenlänge erzeugen, welches physikalisch gemessen werden kann. Als Substrate eignen sich dabei Luminol (5-Amino-2,3-dihydro-1,4-phthalazindion) und Lucigenin (10,10'-Dimethyl-9,9'-biacridiniumdini- trat), welche die CL-Antwort um das 10^3fache steigern.
Durch den Einsatz empfindlicher Messgeräte, in denen die Photonenzählung mit Hilfe von Photomultipliern erfolgt, lässt sich die durch die oben genannten Substanzen verstärkte CL messen. Es wurde ein 6-Kanal-CL-Gerät Biolumat^@ LB 9505 der Fa. Berthold benutzt, das sechs Testungen zur gleichen Zeit ermöglicht. Darüberhinaus erlaubte es das verwendete Gerät auch, die CL-Antwort zeitabhängig zu registrieren. So konnten den Dosis-Wirkungs- Kurven als dritte Dimension die zeitabhängige Wirkung hinzugefügt werden.
Zur in-vitro-Untersuchung des phagozytosesteigenden Wirkung von Substanzen können entweder gereinigte Zellpopulationen von Granulozyten oder Makrophagen verwendet werden, oder die Messung erfolgt direkt in verdünntem Vollblut.
Die Aktivierung der Phagozyten erfolgt dabei durch feste Partikel, z.B. opsonierte Bakterien, Zy- mosan^@ und Latexpartikel, oder durch bestimmte gelöste Substanzen. Bekannte Aktivatoren sind z.B. verschiedene lonophoren und Fluorid-lonen.
• a) Vollblut: 460 µl Veronal®-gepufferte Kochsalzlösung • 200 µl verdünntes Vollblut • 100 pl Lucigenin-Lösung • 200 µl in PBS (phosphat-gepufferte Kochsalzlösung) gelöste Substanz bzw. PBS als Kontrolle • b) PMNL: 630 µl Veronal@-gepufferte Kochsalzlösung • 15 µl PMNL • 100 µl Lucigenin-Lösung 200 µl in PBS gelöste Substanz bzw. PBS als Kontrolle […]

[3] = system: Asciteszellen von Walker-250-Carcinosarkomen von Ratten; test: Cytotoxicity by 3H-thymidine incorporation test on ascites cells; format: cell-based; details: Walker 256; 2 mg/ml; read-out: Mittelwert der Methotrexat-Hemmung
From the text: Da im Granulozytentest einige Substanzen in hoher Konzentration die Granulozyten lysierten, wurde auch die zellschädigende Wirkung am Modell des 3H-Thymidineinbautests in Asciteszellen geprüft, um eine mögliche Beziehung zwischen Phagozytosesteigerung und Cytotoxizität auffinden zu können.
In diesem in-vitro-Testsystem nach WEITZEL et al (Hoppe-Seyler's Z. Physiorog. Chem. 348, 433, 1967) kann die Cytotoxizität von Substanzen durch Hemmung der DNA-Synthese von Tumorzellen zahlenmässig durch die veränderten Einbauraten von ^3H-Tymidin in Asciteszellen von […] von Ratten erfasst werden.
Die Ergebnisse wurden mit der Kontrolle verglichen und die Hemmeffekte in Prozent ausgedrückt. Relativierung der Testergebnisse Da die prozentuale Einbauhemmung bei gleichen Substanzen Schwankungen bis zu 30% zwischen einzelnen Versuchen zeigte, wurde Methotrexat®, welches als Folsäureantagonist die DNA-Synthese hemmt, als Bezugssubstanz in jeder Versuchsreihe mitgetestet. Der Mittelwert der Methotrexat®-Hemmung (43% bei 2 mg/ml) wurde zur Ermittlung der relativen Hemmung H der Substanzen herangezogen.

[4] = system: Makrophagen-Phagozytose; test: In vitro macrophage phagocytosis; format: cell-based; details: Konzentrationen von 10-^4% und 10-^5%

Row | Compound | Wirkung im Granulozytentest ([1]; tested up to 10^-4%) | Wirksamkeit im Granulozytentest [1] | prozentuelle Phagozytosesteigerung ([1]; Konzentration 10^-2 (in %)) | prozentuelle Phagozytosesteigerung ([1]; Konzentration 10^-3 (in %)) | prozentuelle Phagozytosesteigerung ([1]; Konzentration 10^-4 (in %)) | prozentuelle Phagozytosesteigerung ([1]; Konzentration 10^-5 (in %)) | further results
1 | C1CCN2C[C@@H]3C[C@@H](CN4CCCC[C@@H]34)[C@H]2C1 [Spartein, reference compound] | keine Wirkung |  |  |  |  |  | 
2 | COC(=O)C1=CO[C@@H](C)[C@H]2CN3CC[C@]4(C(=O)Nc5ccccc54)[C@@H]3C[C@H]12 [Mitraphyllin, normal-Mitraphyllin] |  | nicht wirksamen |  |  |  |  | 
3 | Thalifabin [reference compound] | Negativ |  |  |  |  |  | 
4 | COc1ccc2cc3[n+](cc2c1OC)CCc1cc2c(cc1-3)OCO2 [Berberin, reference compound] | unwirksam |  |  |  |  |  | 
5 | C=C[C@]12CN(C)[C@@H]3[C@H]4CO[C@H](C[C@H]41)[C@]1(C(=O)Nc4ccccc41)[C@@H]32 [Gelsemin, reference compound] |  |  | 22,1% | 40,4% | 33,7% | 8,2% | 
6 | Thalifaberin [reference compound] | Negativ |  |  |  |  |  | 
7 | COc1cccc2c1cc([N+](=O)[O-])c1c(C(=O)O)cc3c(c12)OCO3 [Aristolochiasäure, reference compound] |  |  |  |  |  |  | Steigerung der Phagozytoseaktivität (respiratory burst) ([2]; CL-Test mit isolierten Granulozyten, Na-Salz): dosisabhängige Steigerung der Phagozytoseaktivität
8 | COC(=O)C1=CO[C@@H](C)[C@@H]2CN3CC[C@@]4(C(=O)Nc5ccccc54)[C@@H]3C[C@H]12 [Isopteropodin, allo-Isopteropodin] |  | wirksamen | 23,4% | 48,7% | 55,0% | 38,2% | prozentuelle Steigerung der CL-Antwort ([2]; Konzentration 10^-3 %): 67,2%; prozentuelle Steigerung der CL-Antwort ([2]; Konzentration 10^-4 %): 66,0%; prozentuelle Steigerung der CL-Antwort ([2]; Konzentration 10^-5 %): 55,7%; prozentuelle Steigerung der CL-Antwort ([2]; Konzentration 10^-6 %): 68,1%; prozentuelle Steigerung der CL-Antwort ([2]; Konzentration 10^-7 %): 55,3%; prozentuelle Steigerung der CL-Antwort ([2]; Konzentration 10^-8 %): 31,2%; prozentuelle Phagozytosesteigerung ([1]; Konzentration 10^-6 (in %)): 28,2%; prozentuelle Phagozytosesteigerung ([1]; Konzentration 10^-7 (in %)): 13,6%
9 | COC(=O)C1=CO[C@@H](C)[C@@H]2CN3CC[C@]4(C(=O)Nc5ccccc54)[C@@H]3C[C@H]12 [Pteropodin, allo-Pteropodin] |  | wirksamen | 11,2% | 21,7% | 26,1% | 23,0% | prozentuelle Steigerung der CL-Antwort ([2]; Konzentration 10^-3 %): 10,6%; prozentuelle Steigerung der CL-Antwort ([2]; Konzentration 10^-4 %): 10,0%; prozentuelle Steigerung der CL-Antwort ([2]; Konzentration 10^-5 %): 23,7%; prozentuelle Steigerung der CL-Antwort ([2]; Konzentration 10^-6 %): 15,4%
10 | Huangshanin [reference compound] | Negativ |  |  |  |  |  | 
11 | CC[C@H]1CN2CC[C@]3(C(=O)Nc4ccccc43)[C@@H]2C[C@@H]1/C(=C\OC)C(=O)OC [Rhynchophyllin] |  | nicht wirksamen |  |  |  |  | 
12 | COC(=O)C1=CO[C@@H](C)[C@@H]2CN3CC[C@@]4(C(=O)Nc5ccccc54)[C@H]3C[C@H]12 [Speciophyllin, reference compound] |  |  | 10,5% | 18,5% | 26,0% | 35,3% | 
13 | CN(Cc1cnc2nc(N)nc(N)c2n1)c1ccc(C(=O)N[C@@H](CCC(=O)O)C(=O)O)cc1 [Methotrexat] |  |  |  |  |  |  | inhibition at 2000 µg/mL [3]: 43%
14 | CC[C@@]1(O)C(=O)OCc2c1cc1n(c2=O)Cc2cc3ccccc3nc2-1 [Camotothecin, reference compound] |  |  |  |  |  |  | Wirkung im Granulozytentest ([1]; bis zu Verdünnungen von 10-^6%): keine Wirkungen
15 | COC(=O)C1=CO[C@@H](C)[C@H]2CN3CC[C@@]4(C(=O)Nc5ccccc54)[C@@H]3C[C@H]12 [Isomitraphyllin, normal-Isomitraphyllin] |  | wirksamen | 16,5% | 27,0% | 27,0% | 19,4% | prozentuelle Steigerung der CL-Antwort ([2]; Konzentration 10^-3 %): 15,4%; prozentuelle Steigerung der CL-Antwort ([2]; Konzentration 10^-4 %): 15,7%; prozentuelle Steigerung der CL-Antwort ([2]; Konzentration 10^-5 %): 36,1%; prozentuelle Steigerung der CL-Antwort ([2]; Konzentration 10^-6 %): 46,7%; prozentuelle Steigerung der CL-Antwort ([2]; Konzentration 10^-7 %): 18,6%; prozentuelle Phagozytosesteigerung ([1]; Konzentration 10^-6 (in %)): 5,7%
16 | CC[C@H]1CN2CC[C@@]3(C(=O)Nc4ccccc43)[C@@H]2C[C@@H]1/C(=C\OC)C(=O)OC [Isorhynchophyllin] |  | wirksamen | 10,8% | 25,2% | 27,3% | 16,1% | prozentuelle Phagozytosesteigerung ([1]; Konzentration 10^-6 (in %)): 8,8%
17 | CC[C@]1(O)C[C@H]2CN(CCc3c([nH]c4ccccc34)[C@@](C(=O)OC)(c3cc4c(cc3OC)N(C=O)[C@H]3[C@@](O)(C(=O)OC)[C@H](OC(C)=O)[C@]5(CC)C=CCN6CC[C@]43[C@@H]65)C2)C1 [Vincristin, reference compound] |  |  |  |  |  |  | Wirkung im Granulozytentest ([1]; bis zu Verdünnungen von 10-^6%): keine Wirkungen; in-vitro-Hemmung der Makrophagen-Phagozytose [4]: in-vitro-Hemmung der Makrophagen-Phagozytose
18 | O=c1cccc2n1C[C@@H]1CNC[C@H]2C1 [Cytisin, reference compound] | keine Wirkung |  |  |  |  |  | 
